{"source": "patent US20030060508A1", "about": "“Polyunsaturated fatty acid fractions of Nigella sativa L. seeds” (priority 2000, published 2003)", "key": {"[1]": {"test_system": "Corynebacterium pyogenes", "assay": "Comparative antibacterial activity with ampicillin, bore method", "assay_type": "cell-based", "details": "1 μg/mL, read-out: Diameter of Zone of Inhibition", "method": "(§1) […] The values are the average of three separate experiments. The anti-bacterial activity of the tested isolates was detected in vitro using the bore method. The nutrient agar medium containing one bacterial strain was poured into sterilized petri-dishes, each 20×120 mm, then left for 10 minutes to dry. Using the borer No. 5, a central bore was made in each plate, then another 4 were arranged it. The effect of different concentrations of the tested isolates on certain microorganisms was tested in 2 plates.\n(§2) The comparative antibacterial activity of ampicillin and the Nigella sativa L. polyunsaturated fatty acid fraction against certain bacterial strains (Streptococcus pyogenes, Corynebacterium pyogenes and Salmonella typhi murium) was preformed in vitro using the bore method as described by Cooper and Woodman (1964) as previously described. The effect of ampicillin (1 μg/mL) and the Nigella sativa L. polyunsaturated fatty acid fraction (at 1 mg/ml) on the previously mentioned bacteria was tested."}, "[2]": {"test_system": "Salmonella typhi murium", "assay": "Comparative antibacterial activity with ampicillin, bore method", "assay_type": "cell-based", "details": "Salmonella enterica, read-out: Diameter of Zone of Inhibition", "method": "as §1, §2"}, "[3]": {"test_system": "Streptococcus pyogenes", "assay": "Comparative antibacterial activity with ampicillin, bore method", "assay_type": "cell-based", "details": "1 μg/mL, read-out: Diameter of Zone of Inhibition", "method": "as §1, §2"}, "[4]": {"test_system": "guinea pigs exposed to histamine aerosol (0.25%)", "assay": "prophylactic anti-asthmatic effect, preconvulsive time", "assay_type": "in vivo", "details": "5 microg/kg, treated for 21 days", "method": "This example explains in vivo studies to evaluate the prophylactic (protective) anti-asthmatic effect of the Nigella sativa L. polyunsaturated fatty acid fraction. The prophylactic antiasthmatic effect was evaluated in vivo by measurement of the preconvulsive time in guinea pigs exposed to histamine aerosol (0.25%).\nGuinea pigs were divided into three groups with 8 animals per group. The first group received a saline injection to serve as negative control. The second group received ketotifen, which is the standard treatment to serve as positive control. The third group received 200 mg/kg of the Nigella sativa L. polyunsaturated fatty acid fraction.\nAnimals in all groups were treated for 21 days, after which they were exposed to histamine (0.25%) aerosol and the preconvulsive time was recorded."}, "[5]": {"test_system": "ova albumin inhalation in sensitized guinea pigs", "assay": "time to onset of tachypnea in sensitized animals", "assay_type": "in vivo", "details": "50 microg/kg, treated for 21 days", "method": "The second protocol involved sensitized animals. Animals were sensitized by injecting ova albumin in two doses 100 mg. each (S.C. and I.P., simultaneously). Animals were resensitized 15 days later. Guinea pigs were divided into three groups with 8 animals per group. The first group received a saline injection to serve as negative control. The second group received ketotifen which is the standard treatment to serve as positive control. The third group received 200 mg/kg each of Nigella sativa L. polyunsaturated fatty acid fraction. Animals in all groups were treated for 21 days following which they were exposed to ova albumin inhalation and time to onset of tachypnea was recorded as shown in the table below (*Statistically significant from the control group (P<0.05))."}, "[6]": {"test_system": "histamine-induced bronchospasm in guinea pigs", "assay": "protection from histamine-induced bronchospasm", "assay_type": "in vivo", "details": "239 mg/kg i.p.", "method": "The anti-histamine effects of the Nigella sativa L. polyunsaturated fatty acid fraction on induced bronchospasm in guinea pigs was evaluated using the methods described by Armitage et al, Brit. J Pharmacol., 16:59-76 (1961). Willis, J. Pharm. Pharmacol., 21:126 (1969).\nThe prophylactic anti-allergic effects were evaluated in guinea pigs (300-400 grams). The animals were divided into 5 groups (10 animals each) and treated i.p. as follows: (1) animals treated with saline (control); (2) animals treated with diphenydramine (239 mg/kg/day); (3) animals treated with 50 mg/kg polyunsaturated fatty acid fraction; (4) animals treated with 100 mg/kg polyunsaturated fatty acid fraction; and (5) animals treated with 150 mg/kg polyunsaturated fatty acid fraction.\nAnimals were exposed 30 minutes after their i.p. injection of diphenydramine and polyunsaturated fatty acid fraction to histamine aerosol (1%) for 3 minutes. Bronchospasm and loss of rightening after 30, 60 and 90 minutes was calculated according to the following formula (Dawson and Sweatman, Br. J. Pharmacol., 71:387-398 (1980)): [formula]"}, "[7]": {"test_system": "writhing induced by parabenzoquinone", "assay": "analgesic activity, writhing method", "assay_type": "in vivo, mice", "details": "5.0 mg/100 g.b.w.", "method": "The analgesic activity of the Nigella sativa L. polyunsaturated fatty acid fraction was studied using the writhing method described by Okun et al. (1963). Thirty mature mice of both sexes weighing from 20 to 25 gm were divided into 3 groups of 10 mice each. The first group served as a control and the second group served as a standard (treated with paracetamol in a dose of 5 mg/100 gm body weight). The third group was injected subcutaneously with the Nigella sativa L. polyunsaturated fatty acid fraction. After 30 minutes, mice were injected intraperitoneally with 0.25 ml of a solution of parabenziquinone (0.2 mg/ml in saline). […] Animals devoid of writhing in each group were recorded and the analgesic potencies of paracetamol and the Nigella sativa L. polyunsaturated fatty acid fraction were determined as percent protection against writhing."}, "[8]": {"test_system": "rat paw formalin edema", "assay": "anti-inflammatory activity, rat paw formalin edema", "assay_type": "in vivo, rats", "details": "3 mg/100 g.b.w. intraperitoneally", "method": "The anti-inflammatory activity of the Nigella sativa L. polyunsaturated fatty acid fraction was carried out in rats using a modification of rat paw formalin edema as described by Domemjoz et al. (1965).\nFifteen mature albino rats of both sexes weighing 150-200 gm were divided into 3 groups of 5 rats each. At the beginning of the experiment, the thickness of the rat left hind paw was measured using a Vernier caliper. Thereafter, rats of the first group were kept as a control and those of the second group (standard) were injected intraperitoneally with phenylbutazone in a dose of 3 mg/100 gm body weight. Rats of the third group were injected with the Nigella sativa L. polyunsaturated fatty acid fraction. After 30 minutes, inflammation was induced by subcutaneous injection of 0.1 mL of 6% solution of formalin in normal saline into the left hind paw.\nThe anti-inflammatory effect of the Nigella sativa L. polyunsaturated fatty acid fraction was estimated by comparing the magnitude of the paw swelling in the pretreated animals with that of the control animals. Measurement of rat paw thickness was carried out at hourly intervals for a period of 3 hours."}}, "data": [{"molecule": "CC1(C)S[C@@H]2[C@H](NC(=O)[C@H](N)c3ccccc3)C(=O)N2[C@H]1C(=O)O", "note": "[Ampicillin, ampicillin]", "values": [{"measurement": "zone of inhibition at 1 µg/mL", "setting": "[1]", "value": "44.7 ± 0.8", "unit": "mm"}, {"measurement": "zone of inhibition at 1 µg/mL", "setting": "[2]", "value": "13.1 ± 0.2", "unit": "mm"}, {"measurement": "zone of inhibition at 1 µg/mL", "setting": "[3]", "value": "26.7 ± 0.3", "unit": "mm"}]}, {"molecule": "CN1CCC(=C2c3ccccc3CC(=O)c3sccc32)CC1", "note": "[ketotifen]", "values": [{"measurement": "% of Prophylaxis (Protection)", "setting": "[4]", "value": 82.85, "unit": "%"}, {"measurement": "% of Prophylaxis", "setting": "[5]", "value": 44.4, "unit": "%"}]}, {"molecule": "CN(C)CCOC(c1ccccc1)c1ccccc1", "note": "[diphenhydramine]", "values": [{"measurement": "% protection 30 minutes", "setting": "[6]", "value": 100, "unit": "%"}, {"measurement": "% protection 60 minutes", "setting": "[6]", "value": 100, "unit": "%"}, {"measurement": "% protection 90 minutes", "setting": "[6]", "value": 90, "unit": "%"}]}, {"molecule": "CC(=O)Nc1ccc(O)cc1", "note": "[Paracetamol, paracetamol]", "values": [{"measurement": "% Protection, 120 minutes", "setting": "[7]", "value": 20, "unit": "%"}, {"measurement": "% protection 30 minutes", "setting": "[7]", "value": 100, "unit": "%"}, {"measurement": "% protection 60 minutes", "setting": "[7]", "value": 60, "unit": "%"}, {"measurement": "% protection 90 minutes", "setting": "[7]", "value": 40, "unit": "%"}]}, {"molecule": "CCCCC1C(=O)N(c2ccccc2)N(c2ccccc2)C1=O", "note": "[Phenylbutazone, phenylbutazone]", "values": [{"measurement": "Rat Paw Thickness, 1 Hour", "setting": "[8]", "value": "5.85 ± 0.15", "unit": "mm"}, {"measurement": "Rat Paw Thickness, 2 Hours", "setting": "[8]", "value": "5.71 ± 0.09", "unit": "mm"}, {"measurement": "Rat Paw Thickness, 3 Hours", "setting": "[8]", "value": "5.82 ± 0.05", "unit": "mm"}]}]}
